The structures appear in SMILES notation.

For orientation: melting point means the temperature, or range, at which the solid turns liquid.

Take `CC1(C)OC(=O)Nc2ccc(-c3cccc(C#N)c3F)cc21`: the melting point fell in the range of 192 to 198 °C.
Take `Cc1cc(C#N)cc(C(=O)Nc2ccc(C#N)cn2)n1`: the melting point is 279 °C.
Take `COC(=O)Cn1c(CCc2ccccc2)ccc(NC(=O)CCc2ccccc2)c1=O`: the melting point was in the range of 105 to 108 °C.
Regarding `COC1(c2cc(F)cc(F)c2)CCOCC1`, the melting point was 100 °C.
The compound `O=C(c1ccc(Cl)cc1)c1ccc2[nH]c(=O)cc(-c3cccc(Cl)c3)c2c1` yielded a melting point of 235 °C.
As to `COC(=O)c1ccc(O)c(C23CC4CC(CC(C4)C2)C3)c1`, the melting point is 183 to 184 °C.
In turn, `COC(=O)c1cncn1C1c2ccccc2C(Br)(Br)C1(C)C` (centres undefined) yielded a melting point of 138 °C.
`COc1ccc(S(=O)(=O)N(Cc2ccccc2)C(C(=O)NO)C(O)C(C)C)cc1` (centres undefined) registered a melting point of 81 to 82 °C.
The figure for `Oc1cccc(-c2cc(-c3ccc(-c4ccccc4)cc3)cc(-c3ccc4ccccc4c3)n2)c1` is 174 to 175 °C; for `O=Cc1ccc(OC2OC(CO)C(O)C(O)C2O)c2ccccc12` (centres undefined) it is < 255 °C.
In turn, `O=C(O)c1cc(Cl)cc2cc(-c3ccccc3)oc12` yielded a melting point of 255 to 258 °C.
`CC(C)(C)OC(=O)N[C@H](Cc1ccc(Cl)c(Cl)c1)C(=O)N1CCC[C@H]1C(=O)NCC1CCc2n[nH]cc2C1` (some centres undefined) came in with a melting point of 100 to 103 °C.
Take `CC(c1c[nH]cn1)c1cccc2c1OC(C)(C)OC2` (centres undefined): the melting point stood at 118 °C.
In the case of `Cc1cc2c(-c3ccccc3Cl)c(NC(=O)Nc3cccc(C(F)(F)F)c3)c(=O)n(C)c2cc1C`, the melting point was in the range of 175 to 176 °C.
`CCNC(C)CN1CCc2c(c(=O)oc3ccccc23)C1` (centres undefined): the melting point lay within 104 to 105 °C.
The compound `COC(=O)C1C(=O)Nc2ccccc2CC1c1ccc(OC)cc1` (centres undefined) registered a melting point of 217 to 219 °C.
In turn, `Nc1nccnc1C(=O)NCCCn1ccnc1` yielded a melting point of 118 to 120 °C.
The figure for `CCc1ccc(OC)c(-c2cc(C(C)(C)C)c(O)c(C(C)(C)C)c2)c1` is 78 to 79 °C.
In turn, `O=[N+]([O-])c1ccc2c(c1)C(Cl)=NC(CF)(CF)O2` had a melting point of 75 to 77 °C.
Under `COc1ccccc1CCN1CC(=O)N(c2cnn(Cc3c(C)noc3C)c2)C1=O` stands 97 to 98 °C; under `CC1Cc2cc(S(N)(=O)=O)cc(C(=O)NCC3CCCN3Cc3ccccc3)c2O1` (centres undefined), 161 to 167 °C.
In turn, `CN1CCC(C2(O)c3ccccc3Sc3ccc(S(=O)(=O)C(F)(F)F)cc32)CC1` (centres undefined) had a melting point of 211 to 216 °C.
Regarding `COc1ccc2c(c1)C(=NOCCCN)c1c-2c(N2CCNCC2)nc2ccccc12`, the melting point was 89 to 90 °C.
The figure for `CCCC(=O)Nc1n[nH]c2cc(Cl)c(-c3ccccc3)cc12` is 235 °C; for `Cc1ccc2cccc(OCc3c(Cl)ccc(S(=O)(=O)N4CCCC4C(=O)NCc4ccccc4)c3Cl)c2n1` (centres undefined) it is 143 °C.
`CCCNC(=O)c1cnc2ccc(C)cn2c1=O` registered a melting point of 126 to 128 °C.
The figure for `COC(=S)c1[nH]c2ccc(Cl)cc2c1-c1ccccc1` is 193 to 196 °C; for `O=c1[nH]cc(Cl)c2ccc(CO)cc12` it is 266 to 268 °C; for `CCn1cc(CN(C(=O)C2CCCc3ccc(C)cc32)c2ccc(C(C)C)cc2)cn1` (centres undefined) it is 110 to 112 °C.
`Cc1nc2c3c(ccn2c1C)[C@@](C)(O)[C@H](O)[C@@H](c1ccccc1)N3` registered a melting point of 137 to 138 °C.
`O=C1C(c2nc3c(cc2O)OCO3)c2ccccc2N1Cc1ccc(C(F)(F)F)o1` (centres undefined) showed a melting point of 161 to 163 °C.
In the case of `O=c1cnc(-c2ccccc2)nn1CC(F)(F)F`, the melting point fell in the range of 129 to 131 °C.
`CCOC(=O)C1=C(C)NC(N)=C(C(=O)OCC)C1c1cccc2ccccc12` (centres undefined) returned a melting point of 174 °C.
As to `COC(=O)c1[nH]c(C)c2c1CN=C(c1ccccc1F)c1cc(Cl)ccc1-2`, the melting point was in the range of 228 to 231 °C.
As for `COc1ccc2[nH]c(-c3nc(C)no3)cc2c1`, the melting point lay in the range of 141 to 142 °C.
In the case of `CC(=O)N(C)c1c(N(C)C)cc(C(=O)CS(C)(=O)=O)cc1N(C)C`, the melting point turned out to be 120 °C.
Under `CS(=O)(=O)NCc1ccc2[nH]cc(CCN3C(=O)c4ccccc4C3=O)c2c1` stands 162 to 165 °C; under `COc1ccc(-c2ccccc2)cc1F`, 84.5 to 86 °C.
As to `Nc1c2c(nc3cc(C(F)(F)F)ccc13)CCSC2`, the melting point lay in the range of 253 to 259 °C.
Regarding `Cc1c(-c2ccc(OC(C)C)cc2)n(Cc2ccc(OCCN3CCCCCC3)cc2)c2ccc(O)cc12`, the melting point was in the range of 120 to 125 °C.
Consider `Cc1ccc(-c2ncc(N(C)CCCCOCC(=O)O)nc2-c2ccc(C)cc2)cc1`, for which the melting point fell in the range of 161 to 162 °C.
`CCOC(=O)Cc1c(SC)c2cc(F)ccc2n1Cc1ccc(Cl)cc1`: the melting point is 118 to 119 °C.
Take `O=C(O)COc1ccc([C@H]2c3ccc(O)cc3OC[C@H]2c2ccccc2)cc1` (racemic): the melting point came to 178 °C.
The compound `Cc1cccc(Nc2nnc(C3OCOCO3)c3ccccc23)c1` had a melting point of 161 °C.
`Cc1sc(-c2cc([N+](=O)[O-])cc([N+](=O)[O-])c2)nc1O` displayed a melting point of 247 to 248 °C.
The compound `O=C1c2ccccc2-c2c1c1ccccc1c(=O)n2CCCCNS(=O)(=O)c1ccc(Br)cc1` showed a melting point of 176 to 177 °C.
In turn, `O=C(Nc1cccc([N+](=O)[O-])c1)NC1N=C(c2ccccc2F)c2ccccc2N(CC(=O)N2CC3CCC(CC3)C2)C1=O` (racemic) yielded a melting point of 180 to 187 °C.
`O=C(O)c1ccccc1NCCCn1c2ccc(O)cc2c2c3c(c(-c4ccccc4Cl)cc21)C(=O)NC3=O` displayed a melting point of 261 to 263 °C.
Take `Fc1ccc(F)c(C(Sc2ccc(Cl)cc2)c2cc(Cl)ncc2Cl)c1` (centres undefined): the melting point was in the range of 128 to 129 °C.
In turn, `CN1CCN(c2cccc3ccc(NC(=O)c4ccccc4)cc23)CC1` came in with a melting point of 173 to 175 °C.
`COC(=O)c1nc(-c2ccc(Cl)c(F)c2)c(F)c(N)c1SC` displayed a melting point of 125 to 126 °C.
`CCOC(=O)c1cc(C)c(Cl)nc1Nc1ccccc1` returned a melting point of 116 to 118 °C.
`O=c1cc(-c2ccccc2)oc2ccc(OCCCCN3CCC(O)CC3)cc12`: the melting point lay within 124 to 125 °C.
`Cc1nsc2ccc(-n3c(=O)c(Cl)c(C(F)(F)F)n(C)c3=O)cc12` yielded a melting point of 252 to 254 °C.
Under `O=Cc1ccc(OC(F)F)c(OCC2CC2)c1` stands 115 to 116 °C; under `CC(C)CCC[C@H](NC(=O)[C@@H](N)Cc1c[nH]cn1)[C@@H](O)C1CCCCC1`, 126 to 130 °C; under `CC(C)C1c2onc(-c3ccc(Cl)cc3)c2CCC1C(=O)O` (centres undefined), 180 to 182 °C.
Take `CCc1cc(C(=O)c2ccccc2)c(O)cc1OCCCCC#N`: the melting point lay in the range of 42 to 44 °C.
Under `CCCCCCCCOc1cc(-c2cccc([N+](=O)[O-])c2)c(OCC(=O)O)c(-c2cccc([N+](=O)[O-])c2)c1` stands 129 to 132 °C.
As to `Cc1nc2cc(-c3ccco3)ccc2o1`, the melting point was found to be 60 °C.
`Fc1cc(Cn2cncn2)cc2c1Cc1c(-c3ccsc3)n[nH]c1-2` gave a melting point of 236 to 239 °C.
On to `O=S(=O)(Cl)c1ccc2scnc2c1`, for which the melting point fell in the range of 110 to 112 °C.
Under `CC(=O)NCCCCn1cnc2c(N)nc(C)c(C)c21` stands 217 to 219 °C; under `COc1cc2c(Nc3ccc(Sc4nccn4C)c(Cl)c3)c(C#N)cnc2cc1N1CCC(N2CCOCC2)CC1`, 219 to 221 °C.
In turn, `CC(C)(C)[S@](=O)N1CCCC[C@@H]1c1ccccc1` yielded a melting point of 45 to 50 °C.
As to `COC(=O)c1ccc(Nc2ccc([N+](=O)[O-])cc2C(=O)OC)cc1`, the melting point fell in the range of 205 to 206 °C.
Under `CCOC(=O)Cc1cccc(-c2nc(CCl)c(C)o2)c1` stands 64 to 65 °C.
On to `CNC(=S)NS(=O)(=O)c1cc(CCNC(=O)/C=C/c2ccccn2)ccc1OC`, for which the melting point was 188 °C.
Under `CC(C)(C)OC(=O)NC(CNC(=O)c1ccccc1)C(=O)O` (centres undefined) stands 110 to 111 °C; under `CCCc1cccn1NS(=O)(=O)C1CCCC=C1C(=O)OCC` (centres undefined), 66 to 68 °C.
In the case of `Cc1cn(C(C)(C)C(=O)N(C)C)nc1-c1cccs1`, the melting point is 116 to 119 °C.
The compound `O=C(NCc1ccnc(Cl)c1)c1[nH]c2ccc(Cl)cc2c1S(=O)(=O)c1ccccc1` came in with a melting point of 263 to 265 °C.
The compound `COC(=O)CN1C(=O)[C@H](C(C)C)Oc2c(C(C)C)cccc21` came in with a melting point of 67 to 68 °C.
`COc1ccc2[nH]c(SCc3nccc(N4CCCC4)c3Cl)nc2c1` showed a melting point of 131 to 133 °C.
Under `OCCCc1cccc(CCCO)c1O` stands 176 to 187 °C.
`COc1ccc(-c2cc(=Nc3ccc(OCC(O)CNC(C)C)cc3)n(C)c(=O)n2C)cc1OC` (centres undefined) had a melting point of 129 to 132 °C.
`CC(C)(C)OC(=O)N1CCN2C[C@H](COc3ccc(F)cc3)CC[C@H]2C1` yielded a melting point of 90 to 92 °C.
With `Cc1cc(-n2cncn2)ncc1[N+](=O)[O-]`, the melting point lay in the range of 198 to 200 °C.
On to `O=S(=O)(c1ccccc1)c1ncc(Br)cn1`, for which the melting point came out at 103 °C.
Compound `N#CN1Cc2ccccc2-c2ccccc2C1` registered a melting point of 121 to 124 °C.
In the case of `OCC1=C(c2cccc3sccc23)N2CCN=C2S1`, the melting point was in the range of 145 to 149 °C.
The figure for `CC(C)CC(NC(=O)c1ccc(Cl)cc1)NC(=NC#N)Nc1cccnc1` (centres undefined) is 193 to 194 °C; for `S=C1CN=C(c2ccccc2Cl)c2ccccc2N1` it is 228 to 229 °C.
`C#CC(OC(=O)C1CC1)c1ccc2ccccc2c1` (centres undefined) came in with a melting point of 65 to 66 °C.
On to `COc1ccc(C2(O)CCN(CC3CN(c4ccccc4)C(=O)O3)CC2)cc1` (centres undefined), for which the melting point was 121 to 122 °C.
On to `CCOC(=O)c1[nH]c(Cl)nc1-c1ccccc1`, for which the melting point is 128 to 129 °C.
As to `Cc1ccc(-c2c([N+](=O)[O-])oc3ccccc23)cc1C`, the melting point was 125 to 133 °C.
Compound `CCOC(=O)N1CCc2nc3ccccc3c(Oc3ccccc3)c2CC1` returned a melting point of 150 °C.
The compound `CN(C)C=Nc1c(F)ccc(F)c1C#N` showed a melting point of 56 to 60 °C.

The values are drawn from a melting point compilation (Tetko et al.; mined from patent text by program, amines drawn as free bases though some values may be those of a salt).
